Measured values as given in PMC11157767 (Molecular Cancer, 2024).
Like-named read-outs stand apart in the source and are kept apart here.

How the values were obtained:
[1] = In vitro protein binding assay, culture media; type: in vitro ADME; details: read-out: unbound drug fraction, Culture Media, AVG
TRIM24-MET-i cells = assay: 3-day dose-response assay, TRIM24-MET-i cells; type: cell-based; details: Homo sapiens
TRIM24-MET-r cells = assay: 3-day dose-response assay, TRIM24-MET-r cells; type: cell-based; details: Homo sapiens
TRIM24-MET-i PDOX = details: vs vehicle
Method: All treatments started 18 days after transplantation. Radiotherapy was administered at 0.5 Gy per day, delivering 10 Gy total.
Each line represents one mouse. The ends of lines indicate the onset of neurological symptoms and thereby the endpoints. Treatment started on day 13.

in vitro [2] = details: mouse, plasma
in vitro [3] = details: mouse, brain homogenate

**Q.** For COc1cc2nccc(Oc3ccc(NC(=O)C4(C(=O)Nc5ccc(F)cc5)CC4)cc3)c2cc1OC [Cabozantinib], which fraction unbound [1] is on record?
**A.** 0.033

**Q.** And the EC50 (TRIM24-MET-i cells; 72 h, read-out: EC50 Total)?
**A.** 30.3 nM

**Q.** What about the EC90 (TRIM24-MET-i cells; 72 h, read-out: EC90 Total) of the same compound?
**A.** 556 nM

**Q.** And the EC50 (TRIM24-MET-i cells; read-out: EC50 Unbound)?
**A.** 1 nM

**Q.** What about the EC90 (TRIM24-MET-i cells; read-out: EC90 Unbound) of the same compound?
**A.** 18.3 nM

**Q.** What about the EC50 (TRIM24-MET-r cells; 72 h, read-out: EC50 Total) of the same compound?
**A.** 369 nM

**Q.** What about the EC90 (TRIM24-MET-r cells; 72 h, read-out: EC90 Total) of the same compound?
**A.** 44900 nM

**Q.** And the EC50 (TRIM24-MET-r cells; read-out: EC50 Unbound)?
**A.** 12.2 nM

**Q.** What about the EC90 (TRIM24-MET-r cells; read-out: EC90 Unbound) of the same compound?
**A.** 1480 nM

**Q.** What about the “increase of median survival” value (TRIM24-MET-i PDOX) of the same compound?
**A.** 15.5 days

**Q.** And the fraction unbound (in vitro [2])?
**A.** 0.0017

**Q.** And the fraction unbound (in vitro [3])?
**A.** 0.0025
